Reference: US20250281561A1, “APPLICATION OF LYCIUM BARBARUM LEAF EXTRACT IN PREPARING DRUG FOR TREATING DIABETIC RETINOPATHY” (NANJING UNIVERSITY OF CHINESE MEDICINE, priority 2025, published 2025)

Experiments:
[1] = test system: ARPE-19 cells with high glucose-induced damage; test: CCK8 survival rate of ARPE-19 cells with high glucose-induced damage; format: cell-based; conditions: 300 mM glucose, 48 hours; high dose 10 μg/mL, low dose 1 μg/mL; compared with model group
Description: Preparation method of active ingredient solution of Lycium barbarum leaf: 1 mg of freeze-dried powder of different active ingredients of Lycium barbarum leaf (Lycium barbarum leaf water extract, Lycium barbarum leaf ethanol extract, refined Lycium barbarum leaf extract, Lycium barbarum polysaccharide, and betaine) prepared in Embodiment 1 was weighed respectively, and dissolved in 1 mL of DMEM/F12 culture medium to prepare 1 mg/mL solution, and the solution was diluted to a required concentration with DMEM/F12 culture medium during administration, and filtered with a […] filter for sterilization. […]
The cells were inoculated into a 96-well plate during culture, and divided into a control group (Con group), a model group (Mod group), a high-dose Lycium barbarum leaf water extract group (ST-H group), a low-dose Lycium barbarum leaf water extract group (ST-L group), a high-dose Lycium barbarum leaf ethanol extract group (CT-H group), a low-dose Lycium barbarum leaf ethanol extract group (CT-L group), […], a low-dose Lycium barbarum polysaccharide group (DT-L group), a high-dose betaine group (SWJ-H group), and a low-dose betaine group (SWJ-L group), wherein the high dose was 10 μg/mL and the low dose was 1 μg/mL. […] An absorbance was measured at 450 nm, and a cell survival rate was calculated.

[2] = test system: ARPE-19 cells with high glucose-induced damage; test: Kit detection of oxidative stress level (GSH, SOD, MDA) in ARPE-19 cells with high glucose-induced damage; format: cell-based; conditions: summary statement
Description: Preparation method of active ingredient solution of Lycium barbarum leaf: 1 mg of freeze-dried powder of different active ingredients of Lycium barbarum leaf (Lycium barbarum leaf water extract, Lycium barbarum leaf ethanol extract, refined Lycium barbarum leaf extract, Lycium barbarum polysaccharide, and betaine) prepared in Embodiment 1 was weighed respectively, and dissolved in 1 mL of DMEM/F12 culture medium to prepare 1 mg/mL solution, and the solution was diluted to a required concentration with DMEM/F12 culture medium during administration, and filtered with a […] filter for sterilization.
(§1) The ARPE-19 cells were cultured in DMEM/F12 culture medium containing 10% FBS and 1% penicillin/streptomycin at 37° C. under 5% CO2. A model group was treated with 300 mM glucose, and the culture medium was added with a corresponding drug to culture the cells for 48 hours to complete the modeling.
The cells were inoculated into a 6-well plate during cell culture, and divided into a Con group, a Mod group, a ST-H group, a ST-L group, a CT-H group, a CT-L group, a FT-H group, a FT-L group, a DT-H group, a DT-L group, a SWJ-H group, and a SWJ-L group, wherein the high dose was 10 μg/mL and the low dose was 1 μg/mL. […] A GSH level, and SOD and MDA activities in the cells were detected according to a kit instruction.

[3] = test system: p38, ERK and JNK genes in a MAPK pathway; test: qPCR gene expression level (p38, ERK, JNK) in ARPE-19 cells with high glucose-induced damage; format: cell-based; conditions: 10 μg/mL, compared with model group
Description: as §1
The cells were inoculated into a 6-well plate during cell culture, and divided into a Con group, a Mod group, a ST group, a CT group, a FT group, a DT group, and a SWJ group, wherein the administration dosage was 10 μg/mL. The cells were collected into Ep tubes and centrifuged at 1000 rpm for 5 minutes, and a supernatant was discarded. Each tube was added with 1 ml of Trizol reagent and blown violently for 15 seconds to mix fully and evenly, and the mixture was allowed to stand at room temperature for 2-3 minutes, and rotated at 4° C. for 1-2 hours. […] A concentration was determined by an ultra-micro ultraviolet spectrophotometer, and then the mixture was stored in a refrigerator at −80° C. for later use. […]
The reaction system was mixed fully and evenly, added to a 96-well PCR plate, centrifuged, and determined by a PCR machine. […] A CT value of a sample was determined, and then relative expressions of p38, JNK and ERK in the sample were calculated by a 2-ΔΔCT method.

[4] = test system: ARPE-19 cells with high glucose-induced damage; test: ROS content (H2FCDA fluorescence) in ARPE-19 cells with high glucose-induced damage; format: cell-based; conditions: high dose 10 g/mL, low dose 1 μg/mL, compared with model group
Description: as §1
The cells were inoculated into a 96-well plate during culture, and divided into a Con group, a Mod group, a ST-H group, a ST-L group, a CT-H group, a CT-L group, a FT-H group, a FT-L group, a DT-H group, a DT-L group, a SWJ-H group, and a SWJ-L group, wherein the high dose was […] and the low dose was 1 μg/mL. After the culture was completed, the culture medium was discarded, and a culture medium containing 1/1000 H2FCDA was added to incubate the cells at 37° C. for 30 minutes. A photo was taken by a fluorescence microscope at an excitation wavelength of 488 nm, and a fluorescence intensity was analyzed by ImageJ.

DR zebrafish [5] = test: Kit detection of glucose content and oxidative stress level (GSH, SOD, MDA) in DR zebrafish; format: in vivo
Description: (§2) 3dpf zebrafish embryos were cultured in a 6-well plate, with 30 zebrafish embryos in each well. A model group and an administration group were cultured in 100 mg/mL circulating water, and divided into a Con group, a Mod group, a metformin (MET) group, a ST-H group, a ST-L group, a CT-H group, a CT-L group, a FT-H group, a FT-L group, a DT-H group, a DT-L group, a SWJ-H group, and a SWJ-L group. An administration dosage for the MET group was 200 μg/ml, and a crude drug dosage was converted for other administration groups, wherein a high dose was 40 μg/mL, and a low dose was 20 μg/mL. The zebrafish embryos were cultured for three days, and the water was replaced at a fixed time every day.
Wild A/B-type zebrafish embryos were cultured according to the above method, and then the zebrafish embryos were collected into Ep tubes and then homogenized, and centrifuged at 4000 rpm for 10 minutes. A supernatant was taken, and GLU and GSH levels and SOD and MDA activities in cells were detected according to a kit instruction.

[6] = test system: p38, ERK and JNK genes in a MAPK pathway; test: qPCR gene expression level (p38, ERK, JNK) in DR zebrafish; format: in vivo; conditions: crude drug dosage high 40 μg/mL, low 20 μg/mL, three days, compared with model group
Description: as §2
The cultured zebrafish embryos were collected into Ep tubes, and each tube was added with 1 mL of TRIZOL and then homogenized, and centrifuged at 4° C. and 12000× g for 10 minutes. A supernatant was taken, and other operations were as described in 2.3.

DR zebrafish [7] = test: Retinal vascular diameter in DR zebrafish (fli1: EGFP, fluorescence microscope, ImageJ); format: in vivo; conditions: crude drug dosage high 40 μg/mL, low 20 μg/mL, three days, compared with model group
Description: as §2
3dpf fli1: EGFP zebrafish embryos were cultured by the method as described in 2.4, and 0.003% phenylthiourea (PTU) was added into circulating water to inhibit melanogenesis of the zebrafish embryos. After the culture was completed, the zebrafish embryos were collected, and fixed on a glass slide. The retinal vessels in the zebrafish were photographed by a fluorescence microscope, and a retinal vascular diameter was measured by ImageJ.

SMILES: C[N+](C)(C)CC(=O)O [betaine]
- survival rate of ARPE-19 cells [1]: improve a survival rate
- oxidative stress [2]: improve oxidative stress
- relative mRNA expressions of p38, ERK and JNK [3]: down-regulate expression levels
- ROS content (ROS fluorescence intensity) [4]: significantly reduce the generation of ROS
- oxidative stress (DR zebrafish [5]; DR zebrafish model, summary statement): improve oxidative stress
- glucose content (DR zebrafish [5]; DR zebrafish, crude drug dosage high 40 μg/mL, low 20 μg/mL, three days, compared with model group): reduce a glucose content in vivo
- relative mRNA expressions of p38, ERK and JNK [6]: down-regulate expression levels
- retinal vascular diameter (DR zebrafish [7]): significantly reduce a retinal vascular diameter
